Values joined by “and” are separate entries in the source; they are usually repeats but may differ in a detail not shown here. Identical values can stand only once.
Test system: Jurkat human lymphoid cells
Assay: Lipid peroxide (LP) quantity in cells with or without UV irradiation, fluorescent probe, flow cytometry
Format: cell-based
Details: for Fluorescence intensity Mean: mean of triplicate; for % of control: relative LP quantity; for 1/fluorescence intensity: relative quantity of lipid peroxides
Excerpt: The purpose of the study is to evaluate the effects of the maca peptide extract on the lipid peroxidation rate (LP) in human cells (Jurkat) exposed or not to UVA+UVB radiation. LP measurement was made with a specific fluorescent probe by flow cytometry. This method has the advantage of showing great sensitivity when measuring the fluorescence of individual cells, over a large number of cells (10 000 cells analysed per sample). The cells used are Jurkat human lymphoid cells distributed in 24-well plates with 8.10^5 cells/well. The culture medium is RPMI 1640 (Invitrogen 31870-025) at […] and in the presence of 5% CO2. The test medium is MEM without phenol red and without calf serum (Polylabo 5503401). Tests are conducted with the peptide extract obtained in example 1, with twofold dilution i.e. in the form of an extract with 5% dry matter. A solution S1 containing 2% of this extract is prepared in the test medium. The control used is butyl hydroxyanisol (BHA Sigma ref. B 1253) in a […] solution in absolute ethanol. Tests are conducted with a solution S2 containing 100 μM BHA prepared in the test medium. […] Rad. Biol. Med., 1997, 22, 13-100) in a 5 μM solution in absolute ethanol. The tests are conducted using a 1 μM probe solution S3 prepared in the test medium. The human cells are pre-incubated in the culture medium, then washed in the test medium. They are subsequently incubated in the presence of the S1 solution of the peptide extract or the S2 control solution. The probe solution S3 is added to each batch for LP assay. After 45 minutes incubation, the fluorescent probe is removed by washing in the test medium. Part of the batches are then irradiated with […], another part without irradiation used as control. After 20 minutes incubation the fluorescence parameters are measured by flow cytometry. Determination of the relative quantity of lipid peroxides (LP) is based on measurement of the reduction in fluorescence of the probe integrated in the cell membranes. An increase in the fluorescence signal translates a reduction in the basal rate of membrane lipid peroxides. The studies are conducted in triplicate. The results obtained are expressed as the value of fluorescence intensity, and percentages with respect to the control are calculated using the values of fluorescence intensity.

Q: What does the source list for `COc1ccc(O)c(C(C)(C)C)c1` [BHA, butyl hydroxyanisol]?
A: Fluorescence intensity Mean (with UV irradiation, BHA 100 μM, extract 2% solution): 374.67; % of control (with UV irradiation, Test +UV = 100): 50%; 1/fluorescence intensity (with UV irradiation): 0.00267; Fluorescence intensity (with UV irradiation, single replicate values, BHA 100 μM, extract 2% solution): 362.40 and 368.20 and 393.42; Fluorescence intensity Mean (without UV, BHA 100 μM, 2% MC101): 753; % of control (without UV, Control -UV = 100): 67%; 1/fluorescence intensity (without UV): 0.00133; Fluorescence intensity n = 10000 cells (without UV, single replicate values, BHA 100 μM, 2% MC101): 741.05 and 745.64 and 770.93

Reference: patent US7473434B2, “Maca extract and cosmetic composition containing such an extract” (Laboratoires Expanscience, priority 2003, dated 2009)
